Experimental data as given in patent US8642502B2, “Reversible gel-forming compositions for controlled delivery of bioactive substances” (TRGel, LLC, priority 2010, dated 2014).

Assays:
[1] = Solubility of trans-stilbene oxide in water vs 10% copolymer solution (UV spectra); type: physicochemical; settings: in 10% solution of p-MDM/DGDM copolymer
Method: Solutions of trans-stilbene oxide were prepared in water and in a 10% solution of p-MDM/DGDM copolymer.

[2] = Solubility of DM monomers and polymers in solvents; type: physicochemical
Text: The DM monomers as prepared by the methods exemplified in Examples 1-5 above were converted to polymers by the anionic polymerization reaction as illustrated in Reaction Scheme A and the physical properties of homopolymers of differing monomers are presented in Table 1. With reference to Table 1 it should be noted that all of the resulting polymers have very low poly dispersity (Mw/Mn). […] Water-soluble polymers are particularly useful in biological applications such as surface protection from non-specific adsorption. The data also illustrates that the glass transition temperature (Tg) of polymers with alkyl substituents decreases as the alkyl chain length increases. […] The DM polymers wherein R=2-methoxyethyl and R=ethoxy-2-methoxyethyl show lower critical solution temperature (LCST) behavior.

SMILES | solubility relative to solubility in water [1] | solubility (in words) [2]
c1ccc([C@@H]2O[C@H]2c2ccccc2)cc1 (relative stereo) [trans-stilbene oxide] | improved | –
CCCCCCCCCCO[C@H]1[C@@H]2O[C@@H]2[C@@H]2OC[C@H]1O2 [DDM, 1,6:2,3-dianhydro-4-O-decyl-β-D-mannopyranose] | – | soluble in hexane
COCCOC1C2COC(O2)C2OC12 [MEDM, 1,6:2,3-dianhydro-4-O-(2-methoxyethyl)-β-D-mannopyranose] | – | soluble in water
